{
  "source": "paper PMC11513923",
  "about": "“Discovery of ZLC491 as a Potent, Selective, and Orally Bioavailable CDK12/13 PROTAC Degrader” (Journal of Medicinal Chemistry, 2024)",
  "key": {"ARG2": {"system": "ARG2", "assay": "TMT-labeled quantitative proteomics in MDA-MB-231 cells", "format": "cell-based, Homo sapiens", "conditions": "2 μM ZLC491 vs DMSO, 8 h", "protocol": "(§1) Figure 5 ZLC491 degraded CDK12/13 with high selectivity. (A) Global proteomic analysis of ZLC491 in MDA-MB-231 cells after 8 h treatment of DMSO or 2 μM ZLC491; (B) mass-spec quantification of CDKs changes; (C) immunoblotting of target protein degradation in samples for proteomic analysis.\n(§2) MDA-MB-231 cells were seeded at 8 × 10^5 cells in 6 cm dishes 24 h before treating with 2 μM ZLC491 or DMSO in quadruplicate or triplicate for 8 h. Cell lysates were prepared by washing cells twice with cold PBS and adding 180 μL lysis buffer (10 mM HEPES, pH 7.0, 1% (w/v) SDS, 2 mM MgCl·6H2O supplemented with 0.1% BeyoZonase (Beyotime)) per dish. Samples were quantified using a micro-BCA protein assay kit (Thermo Fisher Scientific) and 600 μg of each sample was processed and digested using the filter aided sample preparation (FASP) method followed by alkylation with iodoacetamide and digestion with trypsin. The samples were then desalted using Oasis HLB C18 SPE cartridge column (Waters, WAT094225). The peptides were lyophilized and reconstituted, then 25 μg peptides of each sample were labeled with TMT 11-plex Isobaric Label Reagent Set (Thermo Fisher Scientific) as the manufacturer’s instructions. After labeling, the peptides from the 11 samples were pooled together. The pooled TMT 11-plex sample was fractionated using high pH reverse-phase chromatography on an XBridge peptide BEH column (130 Å, 3.5 μm, 2.1 × 150 mm, Waters) on an Ultimate 3000 HPLC system (Thermo Scientific/Dionex). […]\n(§3) The fractions were analyzed sequentially on an Orbitrap Fusion Lumos Mass Spectrometer (Thermo Scientific) coupled to a NanoLC-1200 UHPLC system (Thermo Scientific) with C18 capillary column. […] MS3 precursor were fragmented by HCD and analyzed with Orbitrap at NCE 65, AGC 1E5, resolution 60000.\n(§4) The raw MS data files for all 11 fractions were searched against the Uniprot-Human-Canonical database by Proteome Discoverer 2.0 for protein identification and TMT reporter ion quantitation. […]"}, "B3GAT3": {"system": "B3GAT3", "assay": "TMT-labeled quantitative proteomics in MDA-MB-231 cells", "format": "cell-based, Homo sapiens", "conditions": "2 μM ZLC491 vs DMSO, 8 h", "protocol": "as §1, §2, §3, §4"}, "NME2": {"system": "NME2", "assay": "TMT-labeled quantitative proteomics in MDA-MB-231 cells", "format": "cell-based, Homo sapiens", "conditions": "2 μM ZLC491 vs DMSO, 8 h", "protocol": "as §1, §2, §3, §4"}, "HEK 293 cells": {"system": "HEK 293 cells", "assay": "Cell proliferation assay (CCK-8)", "format": "cell-based", "conditions": "Homo sapiens, HEK293, 120 h; 5 days, noncancerous embryonic kidney cells", "protocol": "(§5) (A) Transcription level of DDR genes in MDA-MB-231 cells determined by RT-qPCR upon the treatment with vehicle or ZLC491 at different doses for 12 h, ROR1 was used as a negative control; (B) immunoblotting of DDR proteins in MDA-MB-231 cells after the treatment of ZLC491 at different doses for 48 h; (C) cell antiproliferative activity of ZLC491 in multiple TNBC cells as well as several noncancerous cells. Cells were treated with the compound for 5 days; (D,E) antiproliferative potency of cisplatin or olaparib alone or combined with ZLC491 at different doses in MDA-MB-231 cells for 5 days. Data are plotted using the percentage of absorbance relative to DMSO controls. (F) IC50 values and combination index (CI) in drug combination assay. In this model, CI scores estimate the interaction between the two drugs. If CI < 1, the drugs have a synergistic effect and if CI > 1, the drugs have an antagonistic effect. CI = 1 means the drugs have an additive effect. ^aThe drug combination in the table refers to the starting concentration of the two combined drugs, that would both go through serial dilution when treating cells.\n(§6) TNBC cell lines MDA-MB-231, MDA-MB-436 and HCC38, human embryonic kidney cell line HEK 293 and human embryonic lung cell line MRC-5 were purchased from American Type Culture Collection (ATCC). Human mammary epithelial cell line MCF 10A was obtained from Chinese Academy of Sciences National Collection of Authenticated Cell Cultures. MDA-MB-231 was maintained in Leibovitz’ s L-15 medium (Gibco) supplemented with 10% fetal bovine serum (FBS; Excell Bio) and 1% penicillin/streptomycin (P/S; Gibco) at 37 °C in a humidified chamber of 100% air atmosphere. MDA-MB-436 and HCC38 were developed in Dulbecco’s modified Eagle medium (DMEM; Gibco) and RPMI-1640 medium (Gibco), respectively, both supplemented with 10% FBS (Excell Bio) and 1% P/S (Gibco), using a 37 °C constant temperature incubator with 5% CO2. HEK 293 and MRC-5 were cultured in the same condition with Eagle’s minimum essential medium (EMEM; Wisent). MCF 10A was grown in Mammary Epithelial Cell Growth Medium BulletKit (Lonza) at 37 °C in a humidified chamber with 5% CO2.\n(§7) Tested cells were plated in 96-well or 384-well plates and incubated at 37 °C with or without 5% CO2. After overnight incubation, serial dilutions of compounds were added to the plate. Cell proliferation was measured 5 days after compound treatment using Cell Counting Kit-8 (Selleck) according to the manufacturer’s instructions."}, "MCF 10A cells": {"system": "MCF 10A cells", "assay": "Cell proliferation assay (CCK-8)", "format": "cell-based", "conditions": "Homo sapiens, 120 h, 5 days, noncancerous mammary epithelial cells", "protocol": "as §5, §6, §7"}, "MDA-MB-231 cells": {"system": "MDA-MB-231 cells", "assay": "Cell proliferation assay (CCK-8)", "format": "cell-based", "conditions": "Homo sapiens, MDA-MB-231, 120 h; 5 days", "protocol": "as §5, §6, §7"}},
  "data": [
    {"compound": "N#Cc1ccc(N[C@H]2CC[C@H](N(C(=O)NCc3ccccc3)c3ccc(N4CCN(C5CCN(c6cc7c(cc6F)C(=O)N(C6CCC(=O)NC6=O)C7=O)CC5)CC4)cc3)CC2)nc1", "note": "(stereo partly drawn) [ZLC491, 3-Benzyl-1-((1r,4r)-4-((5-cyanopyridin-2-yl)amino)cyclohexyl)-1-(4-(4-(1-(2-(2,6-dioxopiperidin-3-yl)-6-fluoro-1,3-dioxoisoindolin-5-yl)piperidin-4-yl)piperazin-1-yl)phenyl)urea]", "values": [
      {"measurement": "FC_4-91 (ARG2)", "setting": "ARG2", "value": 1.14},
      {"measurement": "FC_4-91 (B3GAT3)", "setting": "B3GAT3", "value": 1.982},
      {"measurement": "FC_4-91 (NME2)", "setting": "NME2", "value": 1.1277},
      {"measurement": "IC50", "setting": "HEK 293 cells", "value": "> 10", "unit": "µM"},
      {"measurement": "IC50", "setting": "MCF 10A cells", "value": "> 10", "unit": "µM"},
      {"measurement": "IC50", "setting": "MDA-MB-231 cells", "value": 0.62, "unit": "µM"}
    ]}
  ]
}
